Test results from patent US6627621B2, “Neutrophil function inhibitors” (Dainichieseika Color & Chemicals Mfg. Co., Ltd., priority 2001, dated 2003).

Assays:
Type in all cases: cell-based, Guinea pig
neutrophils [1] = test: Generation of active oxygen by neutrophils (cytochrome c reduction method); details: 0.01, 0.1 and 1 mM, 37° C. 20 minutes preincubation
Description: A glycogen solution (0.17% glycogen-0.9% NaCl solution) was administered into the abdominal cavity of a Guinea pig. About 15 hours later, the abdominal cavity was washed with a 0.4% sodium citrate-0.9% NaCl solution to collect an exudate. The exudate contained neutrophils of 95% or higher purity. After the abdominal cavity exudate was washed twice with phosphate buffer (pH 7.4), the neutrophils were suspended in phosphate buffer (pH 7.4) to prepare a neutrophil suspension.
Inhibiting effects of a glucosamine salt on neutrophil functions were investigated with respect to the generation of active oxygen, ingesting effect and extra-cellular releasing effect on granular components by methods to be described subsequently herein. Data are each shown as a mean ± standard deviation S.D. of three or more samples. Further, a test was conducted using an AVOVA.
Glucosamine hydrochloride was added at 0.01 mM, 0.1 mM and 1 mM to aliquots of a neutrophil suspension (neutrophil concentration: 10^6 cells/mL), respectively, followed by incubation at 37° C. for 20 minutes. To each of the reaction mixtures, N-formyl-1-methionyl-1-leucyl-1-phenylalanine (FMLP; 10^−7 M) or opsonized zymosan (OPZ; count ratio of OPZ to neutrophils: 1:6) was added as an emigrating factor to stimulate neutrophils for 30 minutes. Generated active oxygen was measured by the cytochrome c reduction method. […]

neutrophils [2] = test: Ingesting ability of neutrophils (ingestion of opsonized zymosan, ingestion index); details: 0.01, 0.1 and 1 mM, 37° C. 20 minutes preincubation; OPZ (1:6) 30 minutes; FIG. 3
Description: (§1) A glycogen solution (0.17% glycogen-0.9% NaCl solution) was administered into the abdominal cavity of a Guinea pig. About 15 hours later, the abdominal cavity was washed with a 0.4% sodium citrate-0.9% NaCl solution to collect an exudate. The exudate contained neutrophils of 95% or higher purity. After the abdominal cavity exudate was washed twice with phosphate buffer (pH 7.4), the neutrophils were suspended in phosphate buffer (pH 7.4) to prepare a neutrophil suspension. Inhibiting effects of a glucosamine salt on neutrophil functions were investigated with respect to the generation of active oxygen, ingesting effect and extra-cellular releasing effect on granular components by methods to be described subsequently herein. Data are each shown as a mean ± standard deviation S.D. of three or more samples. Further, a test was conducted using an AVOVA. Glucosamine hydrochloride was added at 0.01 mM, 0.1 mM and 1 mM to aliquots of a neutrophil suspension (neutrophil concentration: 10^7 cells/mL), respectively, followed by incubation at 37° C. for 20 minutes. To each of the reaction mixtures, opsonized zymosan (OPZ; count ratio of OPZ to neutrophils: 1:6) was added, followed by a reaction for 30 minutes. The count of the yeast ingested by neutrophils was determined under a microscope, and was expressed in terms of an ingestion index.

neutrophils [3] = test: Extracellular release of granular enzyme lysozyme from neutrophils; details: 0.01, 0.1 and 1 mM, 37° C. 20 minutes preincubation; OPZ (1:6) 30 minutes; FIG. 4
Description: as §1, with “[…] The reaction mixture was centrifuged, the supernatant was collected, and then, the activity” for “To each”, “granular enzyme, lysozyme, released to the outside” for “reaction mixtures, opsonized zymosan (OPZ; count ratio”, “cells” for “OPZ to neutrophils: 1:6)”, “measured” for “added, followed”, “calorimetrically quantitating dissolution” for “a reaction for 30 minutes. The count”, “Micrococcus lysodeikticus cells.” for “the yeast ingested by neutrophils was determined under a microscope, and was expressed in terms of an ingestion index.”

neutrophils [4] = test: Emigrating ability of neutrophils (Boyden's chamber, C5a as emigrating factor); details: 0.01, 0.1 and 1 mM, 37° C. 20 minutes preincubation, 3 μm membrane, FIG. 5
Description: A glycogen solution (0.17% glycogen-0.9% NaCl solution) was administered into the abdominal cavity of a Guinea pig. About 15 hours later, the abdominal cavity was washed with a 0.4% sodium citrate-0.9% NaCl solution to collect an exudate. The exudate contained neutrophils of 95% or higher purity. After the abdominal cavity exudate was washed twice with phosphate buffer (pH 7.4), the neutrophils were suspended in phosphate buffer (pH 7.4) to prepare a neutrophil suspension. The emigrating ability of neutrophils was measured by using as an emigrating factor the component factor C5 a generated by reacting fresh serum with a yeast. Described specifically, glucosamine hydrochloride was added at 0.01 mM, 0.1 mM and 1 mM to aliquots of a neutrophil suspension (neutrophil concentration: 3×10^6 cells/mL), respectively, followed by incubation at 37° C. for 20 minutes. The reaction mixtures were separately placed in Boyden's chambers each of which was equipped with a nitrocellulose membrane of 3 μm in pore size, and were then incubated at 37° C. for 20 minutes. After the reaction, distances over which neutrophils had emigrated were measured under a microscope.

## Cl.N[C@H]1C(O)O[C@H](CO)[C@@H](O)[C@@H]1O (some centres unmarked) [glucosamine hydrochloride, Glucosamine hydrochloride]
Neutrophils [1]; FMLP 10^-7 M stimulation 30 minutes, FIG. 1
  formation of active oxygen by FMLP: inhibited in a concentration-dependent manner
Neutrophils [1]; OPZ (1:6) stimulation 30 minutes, FIG. 2
  formation of active oxygen by opsonized zymosan: inhibited in a concentration-dependent manner
Neutrophils [2]
  ingestion of opsonized zymosan by neutrophils: inhibited in a concentration-dependent manner
Neutrophils [3]
  extracellular release of the granular enzyme (lysozyme) from neutrophils by opsonized zymosan: significantly inhibited
Neutrophils [4]
  emigrating ability of neutrophils: inhibited in a concentration-dependent manner
